Source: ChEMBL document CHEMBL4393693, “Synthesis and Structure-Activity relationship of 1-(5-isoquinolinesulfonyl)piperazine analogues as inhibitors of Mycobacterium tuberculosis IMPDH” (Eur J Med Chem, 2019)

Test system: not listed separately
Assay: Selective ratio of inhibition of GuaB2 Tyr487Cys mutant in Mycobacterium tuberculosis H37Rv SRMV2.6 to inhibition of wild type GuaB2 in Mycobacterium tuberculosis H37Rv

Row | SMILES | Ratio
1 | O=C(Nc1ccc2c(c1)OCO2)N1CCN(S(=O)(=O)c2cccc3cnccc23)CC1 | 4
2 | CC1CCCCC1C(=O)N1CCN(S(=O)(=O)c2cccc3cnccc23)CC1 (configuration not stated) | 16 to 32
3 | CC1CN(S(=O)(=O)c2cccc3cnccc23)CCN1C(=O)Nc1ccc2c(c1)OCO2 (configuration not stated) | 8 to 16
4 | O=C(Nc1ccc2c(c1)OCO2)N1CCCN(S(=O)(=O)c2cccc3cnccc23)CC1 | 8 to 16
5 | O=C(C1CCCCC1)N1CCN(S(=O)(=O)c2cccc3cnccc23)CC1 | 32
6 | Cc1ccccc1CNC(=O)N1CCN(S(=O)(=O)c2cccc3cnccc23)CC1 | 16 to 32

Test system: Mycobacterium tuberculosis
Assay: Antimycobacterial activity against Mycobacterium tuberculosis H37Rv SRMV2.6 harboring GuaB2 Tyr487Cys mutant assessed as reduction in bacterial cell growth incubated for 3 to 4 weeks by alamar blue fluorescence based broth microdilution assay
Format: functional

Row | SMILES | MIC90 [µM]
7 | COc1cccc(CNC(=O)N2CCN(S(=O)(=O)c3cccc4cnccc34)CC2)c1 | >100
